One data set deals with N.gonorrhoeae. As to the kind of experiment: Activity against N.gonorrhoeae, MIC by serial dilution in 10% horse blood agar. The data set is classed as cell-based. To be noted: Neisseria gonorrhoeae, 24 h. The method, then: (§1) *Serial dilution in 10% horse blood agar. Incubated in a partial atmosphere of CO2 for 24 hours at 37° C. Inoculated with one drop (0.001ml) of an overnight cell suspension.

Another data set deals with Oxford Staph. In words: MIC by serial dilution in 10% horse blood agar (Table 2). The data set is classed as cell-based. The following applies: 24 hours at 37° C. The method, then: as §1
A further data set concerns Strep. faecalis. In words: Antibacterial activity against Gram-positive organisms (MIC). The data set is classed as cell-based. To be noted: Enterococcus faecalis.
For the next data set, the system named is Staph. aureus 1517. The description is as above. The data set is classed as cell-based. To be noted: Staphylococcus aureus.
Another data set relates to Staph. aureus Russell. Described as above. The data set is classed as cell-based. The following applies: Staphylococcus aureus.
The test system of the next data set is Staph. aureus Oxford. The description is as above. The data set is classed as cell-based. To be noted: Staphylococcus aureus.
The next data set concerns B. Subtilis. The data set is described as above. It is filed as cell-based. The following applies: Bacillus subtilis.
The subject of data set [1] is mycoplasmas from human and veterinary sources. As to the kind of experiment: Antimycoplasmal activity in vitro (summary). It is filed as cell-based, mycoplasma. To be noted: in words. As to the method:
(§2) The method used to test for antimycoplasmal activity was as follows:
(§3) The minimal inhibitory concentration (MIC) of the pseudomonic acid amides was determined in Microtitre plates, by a modification of the metabolic-inhibition test (Taylor-Robinson, 1967). The compounds were serially diluted in sterile de-ionised water to give a range of concentrations from 250-0.5 μg/ml. Mycoplasma broth containing 1% (w/v) of glucose and 0.005% (w/v) of phenol red, was added at a strength to compensate for its dilution by the aqueous drug solution. Approximately 10^4 colony forming units of mycoplasma were added to each concentration of drug. Drug-free infected, non-infected and pH control wells were included on each plate. Plates were sealed with cellophane tape and incubated at 37° C. for 7 days. The MIC was the lowest concentration of compound that prevented a colour change in the mycoplasma broth caused by the metabolism of glucose by the mycoplasmas.

For a further data set, the system named is β-Haemolytic Strep. CN10. In words: Antibacterial activity against Gram-positive organisms (MIC). It is filed as cell-based.
In the next data set the test system is M. suipneumoniae (Laber). In words: Antimycoplasmal MIC, metabolic-inhibition test in Microtitre plates. To be noted: Mesomycoplasma hyopneumoniae, 168 h, source pig, 37° C. for 7 days. It is filed as cell-based. The method, then: as §2, §3
For another data set, the system named is M. pulmonis `JB`. The data set is described as above. The data set is classed as cell-based. To be noted: Mycoplasmopsis pulmonis, 168 h, source mouse, 37° C. for 7 days. As to the method: as §2, §3
The next data set relates to M. gallisepticum S6. The description is as above. The data set is classed as cell-based. The following applies: Mycoplasmoides gallisepticum, 168 h; M. gallisepticum S6, source chicken; 37° C. for 7 days. The method, then: as §2, §3
In another data set the test system is M. fermentans MWKL4. The data set is described as above. The following applies: Mycoplasmopsis fermentans, 168 h; M. fermentans MWKL4, source man; 37° C. for 7 days. It is filed as cell-based. The method, then:
as §2, §3

A further data set deals with M. dispar H 225. Described as above. To be noted: 168 h; M. dispar H 225, source cattle; 37° C. for 7 days. The data set is classed as cell-based. As to the method:
as §2, §3

For a further data set, the system named is M. synoviae ATCC 25204. The description is as above. The data set is classed as cell-based. To be noted: Mycoplasmopsis synoviae, ATCC25204, 168 h; M. synoviae ATCC 25204, source chicken; 37° C. for 7 days. The method, then: as §2, §3
The subject of a further data set is M. pneumoniae 429 a. Described as above. The data set is classed as cell-based. To be noted: Mycoplasmoides pneumoniae, 168 h, source man, 37° C. for 7 days. The method, then: as §2, §3
Another data set relates to M. agalactiae ATCC 25025. Described as above. The data set is classed as cell-based. To be noted: Mycoplasmopsis agalactiae, ATCC25025, 168 h; M. agalactiae ATCC 25025, source cattle; 37° C. for 7 days. The method, then: as §2, §3
Data set [2] is described as follows: Serum binding by ultrafiltration, filtrate assayed by hole-in-plate method. The data set is classed as in vitro ADME. As to the method: The degree of binding to human serum of the compounds of Examples 1 and 2 compared with that of pseudomonic acid was determined by the following procedure:
Test samples were mixed with human serum and placed in visking tubing. Serum binding was determined by ultrafiltration, the filtrate obtained being assayed by a hole-in-plate method using Bacillus subtilis ATCC 6633 against standards prepared in 0.05M pH7.0 phosphate buffer.

Where [3] appears, read: strain 69, 24 hours at 37° C., read-out: M.I.C.
Where [4] appears, read: strain 70, 24 hours at 37° C., read-out: M.I.C.
[5] abbreviates: strain 77, 24 hours at 37° C., read-out: M.I.C.
[6] abbreviates: strain 82, 24 hours at 37° C., read-out: M.I.C.
The mark [7] stands for this setting: strain 87, 24 hours at 37° C., read-out: M.I.C.
The mark [8] stands for this setting: strain 2176, 24 hours at 37° C., read-out: M.I.C.
[9] abbreviates: strain AR 229, 24 hours at 37° C., read-out: M.I.C.
The mark [10] stands for this setting: strain H2057, 24 hours at 37° C., read-out: M.I.C.
[11] abbreviates: strain VD 79, 24 hours at 37° C., read-out: M.I.C.
[12] abbreviates: strain VDRL 67, 24 hours at 37° C., read-out: M.I.C.
The mark [13] stands for this setting: strain WHO VII, 24 hours at 37° C., read-out: M.I.C.

≈ marks a conversion by molar mass, not a printed value. Where two headings read alike, the source gives them in different places.

As usually defined, the fraction unbound is the share of the substance not bound to proteins or other matrix.

In the case of `CC1(C)S[C@@H]2[C@H](NC(=O)Cc3ccccc3)C(=O)N2[C@H]1C(=O)O` [Benzyl Penicillin, benzylpenicillin, reference compound], the MIC with N.gonorrhoeae (strain 69, 24 hours at 37° C.) came out at 0.1 µg/mL (≈ 0.299 µM); with N.gonorrhoeae (strain 70, 24 hours at 37° C.), 0.1 µg/mL (≈ 0.299 µM); against N.gonorrhoeae (strain 72, 24 hours at 37° C.), 0.2 µg/mL (≈ 0.598 µM); against N.gonorrhoeae (strain 77, 24 hours at 37° C.), 0.1 µg/mL (≈ 0.299 µM); against N.gonorrhoeae (strain 82, 24 hours at 37° C.) it was 0.5 µg/mL (≈ 1.5 µM); against N.gonorrhoeae (strain 87, 24 hours at 37° C.), 0.01 µg/mL (≈ 0.0299 µM). Moreover, the MIC turned out to be 0.2 µg/mL (≈ 0.598 µM) in the data set with N.gonorrhoeae (strain 2176, 24 hours at 37° C.); 1 µg/mL (≈ 2.99 µM) in the data set on N.gonorrhoeae (strain AR 229, 24 hours at 37° C.); 0.005 µg/mL (≈ 0.015 µM) against N.gonorrhoeae (strain H2057, 24 hours at 37° C.); 0.2 µg/mL (≈ 0.598 µM) against N.gonorrhoeae (strain VD 79, 24 hours at 37° C.); 0.05 µg/mL (≈ 0.15 µM) in the data set on N.gonorrhoeae (strain VDRL 67, 24 hours at 37° C.); 0.005 µg/mL (≈ 0.015 µM) with N.gonorrhoeae (strain WHO VII, 24 hours at 37° C.). The MIC against Oxford Staph. came out at 0.02 µg/mL (≈ 0.0598 µM).

In the case of `CNC(=O)CCCCCCCCOC(=O)/C=C(\C)CC1OCC(CC2OC2C(C)C(C)O)C(O)C1O` (stereo not drawn) [Example 1, Pseudomonic acid N-methylamide], the MIC worked out at 0.002 µg/mL (≈ 0.00389 µM) in the data set with N.gonorrhoeae (setting [3]); 0.005 µg/mL (≈ 0.00973 µM) in the data set with N.gonorrhoeae (setting [4]); 0.005 µg/mL (≈ 0.00973 µM) in the data set on N.gonorrhoeae (setting [5]); 0.05 µg/mL (≈ 0.0973 µM) in the data set with N.gonorrhoeae (setting [6]); 0.01 µg/mL (≈ 0.0195 µM) with N.gonorrhoeae (setting [7]); 0.02 µg/mL (≈ 0.0389 µM) in the data set on N.gonorrhoeae (setting [8]). Also, the MIC with N.gonorrhoeae (setting [9]) is 0.05 µg/mL (≈ 0.0973 µM); with N.gonorrhoeae (setting [10]), 0.005 µg/mL (≈ 0.00973 µM); in the data set with N.gonorrhoeae (setting [11]), 0.02 µg/mL (≈ 0.0389 µM); with N.gonorrhoeae (setting [12]), 0.002 µg/mL (≈ 0.00389 µM); in the data set with N.gonorrhoeae (setting [13]), 0.005 µg/mL (≈ 0.00973 µM); with Oxford Staph., 0.05 µg/mL (≈ 0.0973 µM). Also, the MIC amounted to 125 µg/mL (≈ 243 µM) against Strep. faecalis; 1.25 µg/mL (≈ 2.43 µM) against Staph. aureus 1517; 1.25 µg/mL (≈ 2.43 µM) in the data set with Staph. aureus Russell; 0.5 µg/mL (≈ 0.973 µM) in the data set on Staph. aureus Oxford; 0.25 µg/mL (≈ 0.487 µM) in the data set with B. Subtilis.

In the case of `C/C(=C\C(=O)OCCCCCCCCC(N)=O)CC1OCC(CC2OC2C(C)C(C)O)C(O)C1O` (stereo not drawn) [Example 2, Pseudomonic Acid Amide], the MIC in the data set on N.gonorrhoeae (setting [3]) was 0.002 µg/mL (≈ 0.004 µM); with N.gonorrhoeae (setting [4]), 0.005 µg/mL (≈ 0.01 µM); in the data set on N.gonorrhoeae (strain 72, 24 hours at 37° C., read-out: M.I.C.), 0.01 µg/mL (≈ 0.02 µM); in the data set on N.gonorrhoeae (setting [5]) it was 0.02 µg/mL (≈ 0.04 µM); in the data set on N.gonorrhoeae (setting [6]), 0.05 µg/mL (≈ 0.1 µM); with N.gonorrhoeae (setting [7]), 0.005 µg/mL (≈ 0.01 µM). Besides, the MIC came out at 0.02 µg/mL (≈ 0.04 µM) in the data set with N.gonorrhoeae (setting [8]); 0.05 µg/mL (≈ 0.1 µM) in the data set with N.gonorrhoeae (setting [9]); 0.005 µg/mL (≈ 0.01 µM) with N.gonorrhoeae (setting [10]); 0.02 µg/mL (≈ 0.04 µM) in the data set on N.gonorrhoeae (setting [11]); 0.002 µg/mL (≈ 0.004 µM) in the data set on N.gonorrhoeae (setting [12]); 0.002 µg/mL (≈ 0.004 µM) in the data set with N.gonorrhoeae (setting [13]). The MIC in the data set with Oxford Staph. is 0.05 µg/mL (≈ 0.1 µM); in the data set on β-Haemolytic Strep. CN10, 0.1 µg/mL (≈ 0.2 µM); against Strep. faecalis, 100 µg/mL (≈ 200 µM); against M. suipneumoniae (Laber) it was below 0.5 µg/mL; against M. pulmonis `JB`, below 0.5 µg/mL; against M. gallisepticum S6 it was below 0.5 µg/mL. Also, the MIC in the data set on M. fermentans MWKL4 is below 0.5 µg/mL; in the data set with M. dispar H 225, below 0.5 µg/mL; against M. synoviae ATCC 25204, below 0.5 µg/mL; against M. pneumoniae 429 a, 250 µg/mL (≈ 500 µM); against M. agalactiae ATCC 25025, below 0.5 µg/mL; against Staph. aureus 1517 it was 2.5 µg/mL (≈ 5 µM). The MIC with Staph. aureus Russell is 1 µg/mL (≈ 2 µM); with Staph. aureus Oxford, 0.5 µg/mL (≈ 1 µM); in the data set on B. Subtilis, 0.25 µg/mL (≈ 0.5 µM). Moreover, the “antimycoplasmal activity in vitro” value in data set [1] is listed as “good antimycoplasmal activity”.

For `C/C(=C\C(=O)OCCCCCCCCC(=O)N(C)C)CC1OCC(CC2OC2C(C)C(C)O)C(O)C1O` (stereo not drawn) [Example 3, Pseudomonic acid N,N-dimethylamide], the “antimycoplasmal activity in vitro” value in data set [1] was “good antimycoplasmal activity”. Further, the MIC in the data set on M. suipneumoniae (Laber) was 3.9 µg/mL (≈ 7.39 µM); in the data set with M. pulmonis `JB` it was below 0.5 µg/mL; against M. gallisepticum S6, below 0.5 µg/mL; against M. fermentans MWKL4, below 0.5 µg/mL; in the data set with M. dispar H 225 it was below 0.5 µg/mL; with M. synoviae ATCC 25204, below 0.5 µg/mL. Moreover, the values for the MIC in the data set with M. pneumoniae 429 a and against M. agalactiae ATCC 25025 were 250 µg/mL (≈ 474 µM) and below 0.5 µg/mL, respectively.

As to `C/C(=C\C(=O)OCCCCCCCCC(=O)O)C[C@@H]1OC[C@H](C[C@@H]2O[C@H]2[C@@H](C)[C@H](C)O)[C@@H](O)[C@H]1O` [Pseudomonic acid], the “% unbound in human serum” value in [2] came out at 6.8%. In addition, the fraction unbound in data set [2] (human, serum) worked out at 0.066.

Values taken from patent US4139629A, “Pseudomonic acid amide antibacterial compounds” (priority 1976, dated 1979).
